# Measurements published in ChEMBL document CHEMBL1201862, “PubChem BioAssay data set” (2004).
#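 1) Cells in 96-well plates. 2) Compound, 48 h, 5 concentrations. 3) Linear interpolation between surrounding doses. 4) Unreached endpoint = highest concentration. Here, GI50 denotes the concentration required for 50% inhibition of growth.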 The source made the active and inactive calls. Rule as the data show it: active = GI50 up to about 1.1 µM and inactive = higher.
# What was measured:
# Experiment in all cases: growth of human tumour cells (NCI), 48 h
# 786-0 = test system: 786-0
# A498 = test system: A498
# A549 = test system: A549
# ACHN = test system: ACHN
# BT-549 = test system: BT-549
# CAKI-1 = test system: CAKI-1
# CCRF-CEM = test system: CCRF-CEM
# COLO 205 = test system: COLO 205
# DU-145 = test system: DU-145
# EKVX = test system: EKVX
# HCC 2998 = test system: HCC 2998
# HCT-116 = test system: HCT-116
# HCT-15 = test system: HCT-15
# HL-60 = test system: HL-60
# HOP-62 = test system: HOP-62
# HOP-92 = test system: HOP-92
# HT-29 = test system: HT-29
# Hs-578T = test system: Hs-578T
# IGROV-1 = test system: IGROV-1
# K562 = test system: K562
# KM12 = test system: KM12
# LOX IMVI = test system: LOX IMVI
# M14 = test system: M14
# MCF7 = test system: MCF7
# MDA-MB-231 = test system: MDA-MB-231
# MDA-MB-435 = test system: MDA-MB-435
# MDA-N = test system: MDA-N
# MOLT-4 = test system: MOLT-4
# Malme-3M = test system: Malme-3M
# NCI-H226 = test system: NCI-H226
# NCI-H23 = test system: NCI-H23
# NCI-H460 = test system: NCI-H460
# NCI-H522 = test system: NCI-H522
# NCI/ADR-RES = test system: NCI/ADR-RES
# OVCAR-3 = test system: OVCAR-3
# OVCAR-4 = test system: OVCAR-4
# OVCAR-5 = test system: OVCAR-5
# OVCAR-8 = test system: OVCAR-8
# PC-3 = test system: PC-3
# RPMI-8226 = test system: RPMI-8226
# RXF 393 = test system: RXF 393
# SF-268 = test system: SF-268
# SF-295 = test system: SF-295
# SK-MEL-28 = test system: SK-MEL-28
# SK-MEL-2 = test system: SK-MEL-2
# SK-MEL-5 = test system: SK-MEL-5
# SK-OV-3 = test system: SK-OV-3
# SNB-19 = test system: SNB-19
# SNB-75 = test system: SNB-75
# SW-620 = test system: SW-620
# TK-10 = test system: TK-10
# U-251 = test system: U-251
# UACC-257 = test system: UACC-257
# UACC-62 = test system: UACC-62
# UO-31 = test system: UO-31
# SF-539 = test system: SF-539
# SN12C = test system: SN12C
# SR = test system: SR
# T47D = test system: T47D
compound,measurement,setting,value
COc1ccc(-c2csc(-n3c(-c4ccccc4)nc4c(Br)cc(Br)cc4c3=O)n2)cc1,GI50,786-0,22.9 µM (inactive)
same,GI50,A498,15.5 µM (inactive)
same,GI50,A549,25.5 µM (inactive)
same,GI50,ACHN,25.1 µM (inactive)
same,GI50,BT-549,17.8 µM (inactive)
same,GI50,CAKI-1,35.7 µM (inactive)
same,GI50,CCRF-CEM,13.1 µM (inactive)
same,GI50,COLO 205,37 µM (inactive)
same,GI50,DU-145,39.2 µM (inactive)
same,GI50,EKVX,4.52 µM (inactive)
same,GI50,HCC 2998,28.1 µM (inactive)
same,GI50,HCT-116,22.5 µM (inactive)
same,GI50,HCT-15,19.3 µM
same,GI50,HL-60,20.2 µM (inactive)
same,GI50,HOP-62,40.1 µM (inactive)
same,GI50,HOP-92,5.14 µM (inactive)
same,GI50,HT-29,26.7 µM (inactive)
same,GI50,Hs-578T,41 µM (inactive)
same,GI50,IGROV-1,2.92 µM (inactive)
same,GI50,K562,20.8 µM (inactive)
same,GI50,KM12,33.6 µM (inactive)
same,GI50,LOX IMVI,29.9 µM (inactive)
same,GI50,M14,29.4 µM (inactive)
same,GI50,MCF7,35.1 µM (inactive)
same,GI50,MDA-MB-231,28.5 µM (inactive)
same,GI50,MDA-MB-435,38.3 µM (inactive)
same,GI50,MDA-N,25.4 µM (inactive)
same,GI50,MOLT-4,17.8 µM (inactive)
same,GI50,Malme-3M,26 µM (inactive)
same,GI50,NCI-H226,27.7 µM (inactive)
same,GI50,NCI-H23,14.4 µM (inactive)
same,GI50,NCI-H460,34.2 µM (inactive)
same,GI50,NCI-H522,19.8 µM (inactive)
same,GI50,NCI/ADR-RES,19.6 µM (inactive)
same,GI50,OVCAR-3,25.2 µM (inactive)
same,GI50,OVCAR-4,63.2 µM (inactive)
same,GI50,OVCAR-5,20.9 µM (inactive)
same,GI50,OVCAR-8,26.7 µM (inactive)
same,GI50,PC-3,25.8 µM (inactive)
same,GI50,RPMI-8226,7.74 µM (inactive)
same,GI50,RXF 393,26.3 µM (inactive)
same,GI50,SF-268,15.6 µM (inactive)
same,GI50,SF-295,25.2 µM (inactive)
same,GI50,SK-MEL-28,23.2 µM (inactive)
same,GI50,SK-MEL-2,47.2 µM (inactive)
same,GI50,SK-MEL-5,18.2 µM (inactive)
same,GI50,SK-OV-3,28.1 µM (inactive)
same,GI50,SNB-19,34 µM (inactive)
same,GI50,SNB-75,31.3 µM (inactive)
same,GI50,SW-620,33.6 µM (inactive)
same,GI50,TK-10,51.5 µM (inactive)
same,GI50,U-251,28.7 µM (inactive)
same,GI50,UACC-257,30.3 µM (inactive)
same,GI50,UACC-62,28.5 µM (inactive)
same,GI50,UO-31,23.4 µM (inactive)
COc1ccc2c(c1)CC[C@@H]1C2CC[C@]2(C)C(=O)N(CCN(C)C)C(=O)CC12 (some centres undefined),GI50,786-0,> 100 µM (inactive)
same,GI50,A498,> 100 µM (inactive)
same,GI50,A549,> 100 µM (inactive)
same,GI50,ACHN,> 100 µM (inactive)
same,GI50,BT-549,> 100 µM (inactive)
same,GI50,CAKI-1,> 100 µM (inactive)
same,GI50,CCRF-CEM,> 100 µM (inactive)
same,GI50,COLO 205,> 100 µM (inactive)
same,GI50,DU-145,> 100 µM (inactive)
same,GI50,EKVX,> 100 µM (inactive)
same,GI50,HCC 2998,> 100 µM (inactive)
same,GI50,HCT-116,> 100 µM (inactive)
same,GI50,HL-60,> 100 µM (inactive)
same,GI50,HOP-62,> 100 µM (inactive)
same,GI50,HOP-92,> 100 µM (inactive)
same,GI50,HT-29,> 100 µM (inactive)
same,GI50,Hs-578T,> 100 µM (inactive)
same,GI50,IGROV-1,> 100 µM (inactive)
same,GI50,K562,> 100 µM (inactive)
same,GI50,KM12,> 100 µM (inactive)
same,GI50,M14,> 100 µM (inactive)
same,GI50,MCF7,> 100 µM (inactive)
same,GI50,MDA-MB-231,> 100 µM (inactive)
same,GI50,MDA-MB-435,> 100 µM (inactive)
same,GI50,MDA-N,> 100 µM (inactive)
same,GI50,MOLT-4,> 100 µM (inactive)
same,GI50,Malme-3M,> 100 µM (inactive)
same,GI50,NCI-H226,> 100 µM (inactive)
same,GI50,NCI-H23,> 100 µM (inactive)
same,GI50,NCI-H460,> 100 µM (inactive)
same,GI50,NCI-H522,> 100 µM (inactive)
same,GI50,OVCAR-3,> 100 µM (inactive)
same,GI50,OVCAR-4,> 100 µM (inactive)
same,GI50,OVCAR-5,> 100 µM (inactive)
same,GI50,OVCAR-8,> 100 µM (inactive)
same,GI50,PC-3,> 100 µM (inactive)
same,GI50,RXF 393,> 100 µM (inactive)
same,GI50,SF-268,> 100 µM (inactive)
same,GI50,SF-295,> 100 µM (inactive)
same,GI50,SF-539,> 100 µM (inactive)
same,GI50,SK-MEL-28,> 100 µM (inactive)
same,GI50,SK-MEL-5,83.9 µM (inactive)
same,GI50,SK-OV-3,> 100 µM (inactive)
same,GI50,SN12C,> 100 µM (inactive)
same,GI50,SNB-19,> 100 µM (inactive)
same,GI50,SNB-75,> 100 µM (inactive)
same,GI50,SR,> 100 µM (inactive)
same,GI50,SW-620,> 100 µM (inactive)
same,GI50,T47D,> 100 µM (inactive)
same,GI50,TK-10,> 100 µM (inactive)
same,GI50,U-251,> 100 µM (inactive)
same,GI50,UACC-257,> 100 µM (inactive)
same,GI50,UACC-62,> 100 µM (inactive)
same,GI50,UO-31,> 100 µM (inactive)
